From US10766914B2, “DNA alkylating agents” (OBI PHARMA, INC., priority 2015, dated 2020)

Key:
H460 cells = experiment: Proliferation assay in H460 cells (2 hr exposure, AlamarBlue); assay type: cell-based, human; details: Homo sapiens, NCI-H460, 2 hrs exposure, wash, 70 hrs growth, read-out: IC 50 in proliferation assay in H460 cells
In short: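 H460 cells seeded at 4×10^3/well, grown 24 h, then exposed to compound for 2 h at 37 °C. Drug was washed off and cells were regrown 70 h in fresh medium. Viable cells were read by AlamarBlue, and IC50 was taken as the concentration giving 50% growth inhibition.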

[1] = test system: H460 non-small cell lung cancer xenograft tumor; experiment: Example 4-A antitumor efficacy, ectopic H460 NSCLC xenograft model; assay type: in vivo, female nude mice (nu/nu)
Text: (§1) Specific pathogen-free homozygous female nude mice (nu/nu, Charles River Laboratories) were used. Mice were given food and water ad libitum and housed in microisolator cages. Four to six week old animals were identified by microchips (Locus Technology, Manchester, Md., USA) at the time of the experiments. All animal studies were approved by the Institutional Animal Care and Use Committee at Threshold Pharmaceuticals, Inc.
(§2) All cell lines were from the American Type Culture Collection (ATCC, Rockville, Md., USA).
(§3) Cells were mixed with Matrigel (50% with exception for 30% in the H460) and 0.2 ml per mouse were subcutaneously implanted to the flank area of the animals. When tumor size reached 100-150 250 mm3, mice were randomized into experimental or vehicle groups with 10 mice/group and treatment was started (Day 1). The tested compounds were formulated in 5% DMSO in D5W. The regimens employed in the examples include IP, QD×5/wk (5 days on, 2 days off) as one cycle, for a total of 2 cycles; IP, once; IP, weekly for total 3 weeks; and IV, weekly for 3 weeks. Tumor growth and body weight were measured twice a week. Tumor volume was calculated as (length×width2)/2. Drug efficacy was assessed as Tumor Growth Inhibition (TGI) and Tumor Growth Delay (TGD). TGI was defined as (1−ΔT/ΔC)×100, where ΔT/ΔC presented the ratio of the change in mean (or median, if variation within the group was relatively large) tumor volume of the treated group and of the control group. TGD was calculated as the extra days for the treated tumor to reach 500 mm3 or 1000 mm3 as compared to the control group. Animals were culled when individual tumor size reached over 2000 mm3 or mean tumor volume exceeded 1000 mm3 in the group. Data are expressed as the mean±SEM. One-way analysis of variance with Dunnett post comparison test (GraphPad Prism 4) or two-tailed student's t-test were used for analysis. A P level <0.05 was considered statistically significant.
Compounds provided herein were tested in vivo human tumor xenograft models and compared to standard chemotherapeutic agents such as gemcitabine, nab-paclitaxel. […] The compound was dosed as follows: daily IP dosing: 5 doses then 2 days off then 5 more doses starting at 100 mm^3 tumors on day 1 (10 animals per group median tumor volume). It is contemplated that in some embodiments, the compounds provided herein are activated by human and not by mouse enzymes. The antitumor effects and the safety of administration are graphically illustrated in FIGS. 3-20 below.

[2] = Example 4-A body weight change, H460 xenograft study; assay type: in vivo, female nude mice (nu/nu); details: 40 mg/kg ip QD × 5/wk × 2 wks
Method: as §3, with “A P level <0.05 was considered statistically significant.” left out

[3] = test system: A 549 non-small cell lung xenograft; experiment: Example 4-B antitumor efficacy, ectopic A549 NSCLC xenograft model; assay type: in vivo, female nude mice (nu/nu)
Text: as §1, §2, §3
The dosing was as follows. Daily IP dosing: 5 doses then 2 days off then 5 more doses starting at 110 mm^3 tumors on day 1 (10 animals per group average tumor volume).
Doses were selected by first doing a toxicity test in CD1 mice as described above. The compounds were tested against Thio-tepa.

[4] = Example 4-B body weight change, A549 xenograft study; assay type: in vivo, female nude mice (nu/nu)
Method: as §3
Antitumor effects of compounds provided herein were determined on A 549 non-small cell lung xenograft model in comparison with a chemotherapy agent, thiotepa. The dosing was as follows. Daily IP dosing: 5 doses then 2 days off then 5 more doses starting at 110 mm^3 tumors on day 1 (10 animals per group average tumor volume). The antitumor effects and the safety of administration are graphically illustrated below.

[5] = test system: A375 melanoma human tumor xenograft; experiment: Example 4-C antitumor efficacy, ectopic A375 melanoma xenograft model; assay type: in vivo, female nude mice (nu/nu); details: qd × 5 × 2, ip
Text: as §1, §2, §3
his study employed an A375 melanoma human tumor xenograft model and various compounds provided herein were compared to thiotepa and the approved anti melanoma drug, nab-Paclitaxel.

[6] = Example 4-C body weight change, A375 xenograft study; assay type: in vivo, female nude mice (nu/nu); details: 40 mpk, qd × 5 × 2, ip
Method: as §3
his study employed an A375 melanoma human tumor xenograft model and various compounds provided herein were compared to thiotepa and the approved anti melanoma drug, nab-Paclitaxel. The antitumor effects and the safety of administration are graphically illustrated below.

[7] = test system: renal cell carcinoma 786-O xenograft; experiment: Example 4-E antitumor efficacy, renal cell carcinoma 786-O xenograft model; assay type: in vivo, female nude mice (nu/nu); details: 40 mpk, qd × 5/wk × 2
Text: as §1, §2
Cells were mixed with Matrigel (50% with exception for 30% in the H460) and 0.2 ml per mouse were subcutaneously implanted to the flank area of the animals. When tumor size reached 100-150 250 mm3, mice were randomized into experimental or vehicle groups with 10 mice/group and treatment was started (Day 1). The tested compounds were formulated in 5% DMSO in D5W. […] Tumor growth and body weight were measured twice a week. Tumor volume was calculated as (length×width2)/2. Drug efficacy was assessed as Tumor Growth Inhibition (TGI) and Tumor Growth Delay (TGD). […] TGD was calculated as the extra days for the treated tumor to reach 500 mm3 or 1000 mm3 as compared to the control group. […] Data are expressed as the mean±SEM. […]

[8] = Example 4-E body weight change, 786-O xenograft study; assay type: in vivo, female nude mice (nu/nu); details: 40 mpk, qd × 5/wk × 2
Method: as §3, with “The regimens employed in the examples include IP, QD×5/wk (5 days on, 2 days off) as one cycle, for a total of 2 cycles; IP, once; IP, weekly for total 3 weeks; and IV, weekly for 3 weeks.” left out
The compound TH-2768 was tested in a renal cell carcinoma 786-O model. The compound was dosed as follows. […]

H460 NSCLC xenograft [9] = experiment: Example 4-F antitumor efficacy, ectopic H460 NSCLC xenograft model; assay type: in vivo, female nude mice (nu/nu); details: ip, once
Text: as §1, §2, §3
(§4) The compounds TH-2953 and TH-3040 were tested in a H460 model. The compounds were dosed as follows. A dose-dependent TH-2953 was given IP once, from 6.25 to 100 mg/kg, comparing with daily IP: 5 doses then 2 days off then 5 more doses starting at 100 mm^3 tumors on day 1 (10 animals per group average tumor volume). TH-3040 was administered IP once. The antitumor effects and the safety of administration are graphically illustrated below.

[10] = Example 4-F body weight change, H460 xenograft study; assay type: in vivo, female nude mice (nu/nu); details: ip, once
Method: as §3, §4

H460 NSCLC xenograft [11] = experiment: Example 4-G antitumor efficacy, ectopic H460 NSCLC xenograft model; assay type: in vivo, female nude mice (nu/nu); details: ip, Q7D × 3
Text: as §1, §2, §3
(§5) The compounds TH-3040 and TH-3045 were tested in a H460 model. The compounds were dosed as follows. A dose-dependent TH-3040 or TH-3045 was given IP weekly for 3 weeks, from 5 to 45 mg/kg starting at 100 mm^3 tumors on day 1 (10 animals per group average tumor volume). The antitumor effects and the safety of administration are graphically illustrated below.

[12] = Example 4-G body weight change, H460 xenograft study; assay type: in vivo, female nude mice (nu/nu); details: ip, Q7D × 3
Method: as §3, §5

H460 NSCLC xenograft [13] = experiment: Example 4-H antitumor efficacy, ectopic H460 NSCLC xenograft model; assay type: in vivo, female nude mice (nu/nu); details: ip, Q7D × 3
Text: as §1, §2, §3
The compound TH-3040 was tested in a H460 model. The compound was dosed as follows: 5 or 1.5 mg/kg, IP, weekly for 3 weeks at 100 mm^3 tumors on day 1 (10 animals per group average tumor volume), comparing with nab-Paclitaxel. The antitumor effects and the safety of administration are graphically illustrated below.

[14] = Example 4-H body weight change, H460 xenograft study; assay type: in vivo, female nude mice (nu/nu); details: ip, Q7D × 3
Method: as §3, with “A P level <0.05 was considered statistically significant.” left out

AKR1C3 = target: T1, AKR1C3 (Homo sapiens, UniProt P42330); details: background statement; cited from earlier work
T1 sequence (P42330 1-323): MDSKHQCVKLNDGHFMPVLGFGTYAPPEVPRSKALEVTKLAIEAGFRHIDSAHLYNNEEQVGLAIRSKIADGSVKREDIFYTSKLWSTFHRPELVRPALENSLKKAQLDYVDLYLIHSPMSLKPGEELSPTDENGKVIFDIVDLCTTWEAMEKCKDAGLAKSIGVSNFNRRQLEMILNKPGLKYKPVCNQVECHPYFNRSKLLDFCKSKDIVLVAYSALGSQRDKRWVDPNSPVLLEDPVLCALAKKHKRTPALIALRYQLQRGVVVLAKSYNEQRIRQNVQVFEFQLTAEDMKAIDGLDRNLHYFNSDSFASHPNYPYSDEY

[15] = background statement; cited from earlier work
[16] = 40 mg/kg ip QD × 5/wk × 2 wks, H460

CC(OP(=O)(N1CC1)N1CC1)c1ccc([N+](=O)[O-])c(Oc2ccccc2)c1 (stereo not drawn) [Compound 2768]
IC50 (H460 cells): 40 nM
TGD 500 [1, 16]: 56 days
TGD 1000 [1, 16]: 62 days
TGI [1, 16]: 104.1%
antitumor effect as a monotherapy ([1]; H460 study, versus gemcitabine): superior to the effect of gemcitabine
Max. BW loss % [2]: 4.0%
TGD 500 ([3]; 40 mg/kg ip QD × 5/wk × 2 wks): >72 days
TGI ([3]; 40 mg/kg ip QD × 5/wk × 2 wks): 100.6%
TGD 500 ([3]; 80 mg/kg ip QD × 5/wk × 2 wks): >72 days
TGI ([3]; 80 mg/kg ip QD × 5/wk × 2 wks): 104.4%
Max. BW loss % ([4]; 40 mg/kg ip QD × 5/wk × 2 wks): 0.0%
Max. BW loss % ([4]; 80 mg/kg ip QD × 5/wk × 2 wks): 4.8%
TGD 500 ([5]; 40 mpk): 7 days
TGD 1000 ([5]; 40 mpk): 7 days
inhibition in vivo at 40 mg/kg ([5]; Mus musculus, A-375, 40 mpk, read-out: TGI): 36.7%
Max. BW loss % [6]: 0%
TGI ([7]; ip): 73.0%
Max. BW loss % ([8]; ip): 0.0%

C[C@H](OP(=O)(N1CC1)N1CC1)c1ccc([N+](=O)[O-])c(Oc2ccc(-c3ccccc3)cc2)c1 [Compound 3040]
IC50 (H460 cells): 4 nM
TGD 500 (H460 NSCLC xenograft [9]; 25 mpk): 17 days
TGD 1000 (H460 NSCLC xenograft [9]; 25 mpk): 17 days
TGI (H460 NSCLC xenograft [9]; 25 mpk): 80.5%
TGD 500 (H460 NSCLC xenograft [9]; 100 mpk): 20 days
TGD 1000 (H460 NSCLC xenograft [9]; 100 mpk): 23 days
TGI (H460 NSCLC xenograft [9]; 100 mpk): 93.7%
Max. BW loss % ([10]; 25 mpk): 1.3%
Max. BW loss % ([10]; 100 mpk): 0.0%
TGD 500 (H460 NSCLC xenograft [11]; 5 mpk): 40 days
TGI (H460 NSCLC xenograft [11]; 5 mpk): 103.5%
TGD 500 (H460 NSCLC xenograft [11]; 15 mpk): 60 days
TGI (H460 NSCLC xenograft [11]; 15 mpk): 104.3%
TGD 500 (H460 NSCLC xenograft [11]; 45 mpk): 66 days
TGI (H460 NSCLC xenograft [11]; 45 mpk): 106.4%
Max BW loss ([12]; 5 mpk): 2.5%
Max BW loss ([12]; 15 mpk): 1.0%
Max BW loss ([12]; 45 mpk): 0.0%
TGD500, Days (vs. vehicle) (H460 NSCLC xenograft [13]; 1.5 mg/kg): 15 days
TGD1000, Days (vs. vehicle) (H460 NSCLC xenograft [13]; 1.5 mg/kg): 19 days
TGI (H460 NSCLC xenograft [13]; 1.5 mg/kg): 80.6%
TGD500, Days (vs. vehicle) (H460 NSCLC xenograft [13]; 5 mg/kg): 36 days
TGD1000, Days (vs. vehicle) (H460 NSCLC xenograft [13]; 5 mg/kg): 41 days
TGI (H460 NSCLC xenograft [13]; 5 mg/kg): 101.9%
Max. BW loss % ([14]; 1.5 mg/kg): 7.2%
Max. BW loss % ([14]; 5 mg/kg): 5.2%

CS(=O)(=O)OCCN(CCBr)c1c(C(=O)NCCOP(=O)(O)O)cc([N+](=O)[O-])cc1[N+](=O)[O-] [PR 104]
substrate for AKR1C3 (AKR1C3): weak substrate
efficacy in clinical trials [15]: ineffective

CCN(CC)CCNC(=O)c1c(C)[nH]c(/C=C2\C(=O)Nc3ccc(F)cc32)c1C [Sunitinib, sunitinib, reference compound]
TGI ([7]; po): 67.8%
Max. BW loss % ([8]; po): 0.3%
